Experimental data reported in the supplement of paper PMC8967900.

Tests used:
Experiment in all cases: selective drug sensitivity score (sDSS, relative to normal bone marrow) (sDSS (score)); higher = more potent and effective on the cell line relative to normal bone marrow cells
Settings in all cases: 72 h
[1] = tested on: HAL-01
[2] = tested on: KARPAS-45
[3] = tested on: KASUMI-9
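Further: ALL cell lines in 384-well plates, five doses spanning 10,000-fold, each plate scaled between vehicle and 100 µmol/L benzalkonium chloride controls, sDSS an adapted area-under-curve metric.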

Row | SMILES | selective drug sensitivity score [1] | selective drug sensitivity score [2] | selective drug sensitivity score [3]
1 | CC1(C)C(C(=O)Nc2ccc(S(=O)(=O)c3ccc(NC(=O)C4C(C)(C)C4(C)C)cc3)cc2)C1(C)C [BRD7116] (top concentration 10000 nM) | 3.36 | -0.04 | 4.46
2 | CC[C@@H]1CN(C(=O)NCC(F)(F)F)C[C@@H]1c1cnc2cnc3[nH]ccc3n12 [Upadacitinib] (top concentration 10000 nM) | -6.76 | -7.16 | -2.76
3 | COc1cc([C@@H]2c3cc4c(cc3[C@@H](O[C@@H]3O[C@@H]5CO[C@@H](C)O[C@H]5[C@H](O)[C@H]3O)[C@H]3COC(=O)[C@H]23)OCO4)cc(OC)c1O [Etoposide] (top concentration 10000 nM) | 5.14 | 7.24 | 16.3
4 | O=C(Nc1cnn2ccc(N3CCC[C@@H]3c3cc(F)ccc3F)nc12)N1CC[C@H](O)C1 [Larotrectinib] (top concentration 1000 nM) | 0.68 | -0.62 | 0.98
5 | CC[C@H](CO)Nc1nc(NCc2ccccc2)c2ncn(C(C)C)c2n1 [Seliciclib] (top concentration 10000 nM) | -0.34 | 1.96 | -0.44
6 | CN1CCN(C(=O)c2ccc3cc(CCNc4ncnc5ccc(C#N)cc45)ccc3c2)CC1 [Senexin_B] (top concentration 1000 nM) | -0.6 | 1.4 | -0.6
7 | C[C@H]1CN(C2COC2)CCN1c1ccc(Nc2cc(-c3ccnc(N4CCn5c(cc6c5CC(C)(C)C6)C4=O)c3CO)cn(C)c2=O)nc1 [GDC-0853] (top concentration 1000 nM) | 0 | 0 | 0
8 | CCC1=C[C@@H]2CN(C1)Cc1c([nH]c3ccccc13)[C@@](C(=O)OC)(c1cc3c(cc1OC)N(C)[C@H]1[C@@](O)(C(=O)OC)[C@H](OC(C)=O)[C@]4(CC)C=CCN5CC[C@]31[C@@H]54)C2 [Vinorelbine] (top concentration 10000 nM) | 1.38 | 17.8 | 24.2
9 | CN1CCN(C2CCN(C(=O)Nc3cc(Oc4ccc(NC(=O)C5(C(=O)Nc6ccc(F)cc6)CC5)c(F)c4)ccn3)CC2)CC1 [Golvatinib] (top concentration 2500 nM) | 0.76 | 0.76 | 0.66
10 | CCN(c1cc(-c2ccc(CN3CCOCC3)cc2)cc(C(=O)NCc2c(C)cc(C)[nH]c2=O)c1C)C1CCOCC1 [Tazemetostat] (top concentration 10000 nM) | 3.82 | 1.32 | 0.92
11 | c1cn2cc(-c3ccc4cn[nH]c4c3)nc(Nc3ccc(N4CCOCC4)cc3)c2n1 [Entospletinib] (top concentration 5000 nM) | -0.64 | -0.64 | 2.96
12 | O=C(O)c1ccc(CN2CCC(CN[C@@H]3C[C@H]3c3ccccc3)CC2)cc1 (top concentration 100000 nM) | -0.62 | -0.32 | -0.62
13 | CC[C@@H]1[C@H](F)C(=O)N[C@@H]1COc1nccc2cc(C(N)=O)c(OC)cc12 (top concentration 10000 nM) | -1.32 | 2.58 | 0.08
14 | CONC(=O)c1ccccc1Nc1cc(Nc2cc(C)nn2C(C)C)ncc1Cl (top concentration 1000 nM) | 2.96 | -0.94 | -0.94
15 | CCC1(c2ccc(N)cc2)CCC(=O)NC1=O (stereo not given) [Aminoglutethimide] (top concentration 10000 nM) | 0 | 0 | 0.6
16 | CC(O)c1cc(C(=O)N[C@@H](C)Cn2ccc(-c3ccc(C#N)c(Cl)c3)n2)n[nH]1 (stereo not given in full) [ODM-201] (top concentration 2500 nM) | 1.42 | 2.32 | -0.18
17 | COc1cc(N2CCN(C)CC2)ccc1Nc1nccc(-c2cn(C)c3cnccc23)n1 [AZ191] (top concentration 10000 nM) | 0.88 | 0.98 | 1.58
18 | O=C(O)CC[C@H]1CC[C@@](c2cc(F)ccc2F)(S(=O)(=O)c2ccc(Cl)cc2)CC1 [MK-0752] (top concentration 1000 nM) | 3.5 | 0 | 0
19 | Clc1ccccc1C(c1ccccc1)(c1ccccc1)n1cccn1 [TRAM-34] (top concentration 1000 nM) | 2.72 | -0.08 | 2.52
20 | Cc1ccc(NS(=O)(=O)c2cccc(C#N)c2)c2[nH]cc(C#N)c12 [E7820] (top concentration 50000 nM) | 12.3 | 20.1 | 12.7

Row | SMILES | selective drug sensitivity score [1] | selective drug sensitivity score [2] | selective drug sensitivity score [3]
21 | COc1cc(C)c(/C=C/C(C)=C/C=C/C(C)=C/C(=O)O)c(C)c1C [Acitretin] (top concentration 10000 nM) | -1.6 | 0.2 | 2.9
22 | COc1cc(CCc2cc(NC(=O)c3ccc(N4CC(C)NC(C)C4)cc3)n[nH]2)cc(OC)c1 (stereo not given) [AZD4547] (top concentration 1000 nM) | -0.14 | -0.14 | -0.14
23 | CNC(=O)c1ccc(C)c(-n2c(C)cc(OCc3ccc(F)cc3F)c(Br)c2=O)c1 (top concentration 1000 nM) | 2.6 | 0 | 2.3
24 | O=C(NOCCO)c1ccc2cncn2c1Nc1ccc(I)cc1F [GDC-0623] (top concentration 2500 nM) | 3.1 | -3.1 | -0.4
25 | Cc1cc2c(F)c(Oc3ncnn4cc(OC[C@@H](C)O)c(C)c34)ccc2[nH]1 [Brivanib] (top concentration 1000 nM) | -0.04 | 0.06 | -0.04
26 | Nc1cccc2c1C(=O)N(C1CCC(=O)NC1=O)C2=O (stereo not given) [Pomalidomide] (top concentration 10000 nM) | -0.26 | -0.26 | 6.84
27 | CN1C(=O)N[C@H](Cc2c[nH]c3c(Cl)cccc23)C1=O [Necrostatin_2] (top concentration 10000 nM) | -0.08 | -0.08 | -0.08
28 | CCNc1nc(Nc2cc(F)c(C(=O)N3CCOCC3)cc2OC)ncc1C(F)(F)F [GNE-7915] (top concentration 1000 nM) | 1.04 | -0.06 | -0.06
29 | CC(O)(CS(=O)(=O)c1ccc(F)cc1)C(=O)Nc1ccc(C#N)c(C(F)(F)F)c1 (stereo not given) [Bicalutamide] (top concentration 10000 nM) | -1.68 | -0.88 | 0.52
30 | COc1cc(Nc2c(C#N)cnc3cc(OCCCN4CCN(C)CC4)c(OC)cc23)c(Cl)cc1Cl [Bosutinib] (top concentration 10000 nM) | -0.54 | 2.46 | 4.06
31 | COc1cc2c(NC3CCN(C(C)C)CC3)nc(C3CCCCC3)nc2cc1OCCCN1CCCC1 [UNC0638] (top concentration 10000 nM) | -4.64 | 2.36 | -1.64
32 | CCc1c(C(=O)C(N)=O)c2c(OCC(=O)O)cccc2n1Cc1ccccc1 [Varespladib] (top concentration 10000 nM) | -0.84 | -0.84 | -0.84
33 | O=C1NC(=O)[C@@H](c2cn3c4c(cccc24)CCC3)[C@@H]1c1c[nH]c2ccccc12 [Tivantinib] (top concentration 1000 nM) | 5.78 | 4.08 | 5.38
34 | CN1CC[C@@H](NC(=O)Nc2ccc(C#N)cc2)C[C@@H]1c1nc2ccccc2[nH]1 [Glasdegib] (top concentration 1000 nM) | 0 | 0 | 0
35 | Nc1nc(Nc2ccc3c(c2)CC[C@@H](N2CCCC2)CC3)nn1-c1cc2c(nn1)-c1ccccc1CCC2 [BGB324] (top concentration 10000 nM) | -1.58 | 1.92 | 5.22
36 | C=CC[C@@H]1/C=C(\C)C[C@H](C)C[C@H](OC)[C@H]2O[C@@](O)(C(=O)C(=O)N3CCCC[C@H]3C(=O)O[C@H](/C(C)=C/[C@@H]3CC[C@@H](O)[C@H](OC)C3)[C@H](C)[C@@H](O)CC1=O)[C@H](C)C[C@@H]2OC [Tacrolimus] (top concentration 10000 nM) | 8.58 | 2.18 | 12.1
37 | CCCCC(=O)OCC(=O)[C@]1(O)Cc2c(O)c3c(c(O)c2[C@@H](O[C@H]2C[C@H](NC(=O)C(F)(F)F)[C@H](O)[C@H](C)O2)C1)C(=O)c1c(OC)cccc1C3=O [Valrubicin] (top concentration 5000 nM) | 0.38 | -2.62 | 5.68
38 | C[C@]1(O)C[C@@H](c2nc(-c3ccc4ccc(-c5ccccc5)nc4c3)c3c(N)nccn32)C1 [Linsitinib] (top concentration 10000 nM) | -1.78 | -3.18 | -2.98
39 | CN(C)C(=O)c1ccc(S(=O)(=O)c2ccc(NC(=O)[C@@](C)(O)C(F)(F)F)c(Cl)c2)cc1 [AZD7545] (top concentration 10000 nM) | -0.2 | 2.9 | -0.2
40 | CNC(=O)[C@@H](NC(=O)[C@H](CC(C)C)[C@H](O)C(=O)NO)C(C)(C)C [Marimastat] (top concentration 10000 nM) | -1.28 | 3.32 | -1.28
